# In PubChem BioAssay (NCI):
# Several values for one entry are separate records, joined by “and”; a condition that tells them apart may be missing. Equal values may be shown once.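 All cell lines were grown in 96-well plates and treated with compound for 48 hours. GI50 marks 50% less growth. TGI denotes the concentration required for complete inhibition of growth.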
# How the values were obtained:
# Assay in all cases: NCI anticancer screen, dose series, 48 h
# IGROV1 ovarian = system: IGROV1 ovarian
# SNB-19 CNS = system: SNB-19 CNS
# PC-3 prostate = system: PC-3 prostate
# HS 578T breast = system: HS 578T breast
# T-47D breast = system: T-47D breast
# SR leukemia = system: SR leukemia
# HT29 colon = system: HT29 colon
# HOP-62 NSCLC = system: HOP-62 NSCLC
# A549 NSCLC = system: A549 NSCLC
# CAKI-1 renal = system: CAKI-1 renal
Compound,GI50 (IGROV1 ovarian),TGI (IGROV1 ovarian),GI50 (SNB-19 CNS) [µM],TGI (SNB-19 CNS) [µM],GI50 (PC-3 prostate) [µM],TGI (PC-3 prostate),GI50 (HS 578T breast) [µM],TGI (HS 578T breast) [µM],GI50 (T-47D breast) [µM],TGI (T-47D breast) [µM],GI50 (SR leukemia) [µM],TGI (SR leukemia) [µM],GI50 (HT29 colon) [µM],TGI (HT29 colon),GI50 (HOP-62 NSCLC) [µM],TGI (HOP-62 NSCLC) [µM],GI50 (A549 NSCLC) [µM],TGI (A549 NSCLC),GI50 (CAKI-1 renal) [µM],TGI (CAKI-1 renal) [µM]
Oc1[nH]c2ccc(Cl)cc2c1/C=c1/ccc2c(c1)N=C(c1ccc(C(F)(F)F)cc1)N=2,3.35 µM,14.2 µM,3.12,17,2.29,7.58 µM,2.4,6.86,2.86,9.23,2.43,5.38,1.78,3.94 µM,2.28,4.78,3,10.8 µM,2.74,9.55
O=C1/C(=C\c2ccc([N+](=O)[O-])cc2)CS(=O)(=O)C/C1=C/c1ccc([N+](=O)[O-])cc1,0.275 µM,0.841 µM and 2.22 µM,,22.2,0.194,0.713 µM and 1.51 µM,0.447,39.4,0.446,2.95,0.908,,0.127,0.382 µM and 2.77 µM,0.284,3.94,0.35,10.8 µM,0.121,
O=C(NCCSSCCNC(=O)/C(Cc1ccc(O)c(Br)c1)=N/O)/C(Cc1ccc(O)c(Br)c1)=N/O,,7.15 µM,,7.96,,8.21 µM,,> 50,,13.1,,7.08,,> 21.4 µM,,6.1,,15.5 µM,,5.32
Cc1ccc(C2NC(=S)N3C(c4ccc(C)cc4)NC(=S)N23)cc1 (configuration not stated),8.5 µM,22 µM,5.06,17.7,3.81,16.9 µM,4.74,25,5.24,19.6,0.491,3.55,2.58,10.2 µM,5.89,20.1,5.82,20.1 µM,2.68,7.01
Cc1ccc(-n2nnc3c(sc4ccccc43)c2=O)cc1,4.16 µM,> 100 µM,6.22,> 100,7.73,> 100 µM,2.18,8.71,30.4,> 100,> 100,> 100,3.59,> 100 µM,3.8,26.5,5.23,> 100 µM,3.8,> 100
O=Cc1c[nH]c2ccc(-c3csc4ccccc34)cc12,3.81 µM,59.9 µM,5.98,> 100,3.02,> 100 µM,2.3,9.55,9.15,> 100,1.12,10.9,3.34,> 100 µM,3.06,39.9,4.29,> 100 µM,1.93,> 100
NC(Cn1ccc(=O)c(O)c1)C(=O)O (configuration not stated),,> 100 µM,,> 100,,> 100 µM,,> 100,,> 100,,> 100,,> 100 µM,,> 100,,> 100 µM,,> 100
CS(=O)/C(C#N)=C\C=C\c1cccc(Cl)c1 (configuration not stated),2.08 µM,10.3 µM,1.81,5.54,2.68,12.8 µM,13.1,52.6,2.67,17,0.636,> 100,3.26,13.7 µM,4.56,16.2,2.99,16.8 µM,2.06,13.4
Cc1cc(NS(=O)(=O)c2ccc(NC(=O)COc3ccc(-c4cc5ccccc5[nH]4)cc3)cc2)no1,2.02 µM,4.41 µM,2.23,8.69,1.94,6.91 µM,1.98,4.98,2.75,8.56,1.67,> 100,1.73,3.44 µM,2.95,7.74,2.18,6.39 µM,2.57,9.28
CC[C@@]1(O)C(=O)OCc2c1cc1n(c2=O)Cc2cc3c(Cl)c4c(cc3nc2-1)OCO4,0.121 µM and 0.285 µM,> 100 µM,0.00125,0.26,,> 100 µM,,> 100,< 0.001,> 100,< 0.001,,,7.85 µM,< 0.001,,< 0.001,1.68 µM and 3.7 µM,< 0.001,> 100
O=c1[nH]cc(CO)c(=O)[nH]1,> 100 µM,> 100 µM,> 100,> 100,> 100,> 100 µM,> 100,> 100,> 100,> 100,> 100,> 100,> 100,> 100 µM,> 100,> 100,> 100,> 100 µM,> 100,> 100
CC(=O)Nc1c(I)c(C(=O)O)c(I)c(N(C)C(C)=O)c1I,> 100 µM,> 100 µM,> 100,> 100,> 100,> 100 µM,46.4,> 100,> 100,> 100,> 100,> 100,> 100,> 100 µM,> 100,> 100,> 100,> 100 µM,> 100,> 100
O=S(=O)(CC(O)C(Cl)(Cl)Cl)NNc1ccccc1 (configuration not stated),,> 100 µM,,> 100,,> 100 µM,,> 100,,> 100,,> 100,,> 100 µM,,> 100,,> 100 µM,,> 100
Nc1nc2c(c(=O)[nH]1)N=C(COP(=O)(O)OP(=O)(O)O)CN2,,> 100 µM,,> 100,,> 100 µM,,> 100,,> 100,,> 100,,> 100 µM,,> 100,,> 100 µM,,> 100
